Tests used:
[1] = Stability of carbohydrate-linked enzyme substrate peptide linkers; assay type: physicochemical; conditions: linker: carbohydrate linked to the enzyme substrate peptide
Protocol: (§1) The specific aspartic acid endopeptidase (Legumain) enzyme substrate peptide was ligated to different types of carbohydrates, and the stability and enzymatic cleavage efficiency of the resulting linker were tested, and a strong activation was predicted.

[2] = biological target: T1, aspartic acid endopeptidase (Legumain) (Homo sapiens, UniProt Q99538); experiment: Enzymatic cleavage (digestion) efficiency of linkers; assay type: biochemical; conditions: linker cleaved by Legumain
T1 sequence (Q99538 18-323): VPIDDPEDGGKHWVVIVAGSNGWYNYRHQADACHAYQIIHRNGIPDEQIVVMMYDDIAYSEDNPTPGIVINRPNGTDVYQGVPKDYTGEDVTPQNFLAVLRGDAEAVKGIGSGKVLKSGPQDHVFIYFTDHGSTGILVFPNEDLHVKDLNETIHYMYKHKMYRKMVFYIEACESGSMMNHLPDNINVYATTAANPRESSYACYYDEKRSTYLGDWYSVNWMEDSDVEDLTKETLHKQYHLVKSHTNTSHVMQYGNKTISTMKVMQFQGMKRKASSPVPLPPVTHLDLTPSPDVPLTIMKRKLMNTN
Protocol: as §1

aspartic endopeptidase = biological target: T2, aspartic endopeptidase (Homo sapiens, UniProt Q99538); experiment: Activation efficiency by aspartic endopeptidase (HPLC); assay type: biochemical; conditions: 1 mg/ml compound, enzyme 1 μmol/L, pH 6.0, 37° C., 2 hours; ratio of released product to original compound
T2 sequence (Q99538 18-323): T1 sequence (Q99538 18-323)
Protocol: The sample compound and a portion of the control compound (herein, all of the control compounds can be synthesized by a method similar to that described in Examples 1-3) were uniformly diluted 10-fold to 1 mg/ml with the enzyme-digesting solution. In this experiment, 1 mg/ml of the sample compound was added to the aspartic endopeptidase (1 μmol/L, pH 6.0) at 37° C. for 2 hours. After the reaction, the enzyme digest was able to release the enzyme-digested product. The decrease in the compound and the increase in the product were examined by HPLC to compare the enzyme activation efficiency (the ratio of the product released by the enzyme cleavage to the original compound).

[3] = Solid stability, 60° C. for 10 days in the dark (HPLC); assay type: physicochemical; conditions: solid, 60° C., 10 days, dark; for Stability(%): content versus time 0
Protocol: The test was carried out by leaving it at 60° C. for 10 days in the dark. The ratio of the change in the content of the compound to the compound at time 0 was measured by HPLC, and the stability value (%) was calculated.

[4] = MTD (maximum tolerated dose) acute toxicity in mice; assay type: in vivo, mouse; conditions: mouse, in vivo, BALB/C mice, intravenous, observed 17 days; for MTD at 17 days: female
Excerpt: (§2) Test purpose: to investigate the acute toxicity of highly activated compounds by targeted site molecules of the invention by measuring the MTD (maximum tolerated dose) experiment in mice.
(§3) The injections of each drug and the control drug were uniformly dissolved using water for injection, and diluted to the corresponding dose with physiological saline during the test.
(§4) Methods and results: […] BALB/C mice, weighing 19-21 g, were randomly divided into 10 groups, with 10 mice in each group. […] A control test of the saline group and the adriamycin group injection (commercially available, Beijing Yue kang) was carried out, and the injection volume of each mouse was 0.2 ml. […] On the D3, D5, and D14, blood samples were taken for whole blood count.

BALB/C mouse = experiment: as above; assay type: in vivo; conditions: intravenous; for Number of deaths: 10 mice per group; for Death dose: observed 17 days
Excerpt: as §2, §3, §4

CT26 tumor cells [5] = experiment: CT26 immunotherapy model (Example 15); assay type: in vivo, mice; conditions: for Cure rate % / Number of cures: 10 in each group; for Tumor inhibition rate % (Day 42): IV ⅓ MTD once a week, 6 weeks; for Recurrence rate % (Week 7): cured mice re-inoculated with CT26 cells after 50 days
Protocol: (§5) 1) CT26 tumor cells were purchased from ATCC, and the cells were cultured using a 10% fetal bovine serum DMEM medium at 37° C., 5% CO2. The cells were passaged every 3 days and the cells were used within 15 generations.
(§6) 2) Tumor production: 10^6 live CT26 tumor cells were injected subcutaneously into the back of tumor-immunized […], and treatment was started when the tumor grew to about 0.3-0.4 cm. The tumor size (mm^3) of the mice was recorded and compared with the solvent control group. The tumor inhibition rate on day 42 was calculated in the solvent control group.
(§7) 3) Treatment process: IV injection is used, and the drug is used at a dose of ⅓ MTD once a week Immunosuppressive IV injection treatment once a week for a total of 6 weeks of treatment.
(§8) 4) The cure rate of 10 in each group was counted. After 50 days, the cured mice and wild groups were inoculated […] to detect recurrence.

D121 lung cancer cells = experiment: D121 lung cancer immunotherapy model; conditions: single agent; for Tumor inhibition rate/% (week 7): i.v. ⅙ MTD once a week for 4 weeks; for CD8: CD45 (%): tumor CD8+ T cells among CD45-positive cells, flow cytometry
Protocol: (1) D121 lung cancer cells purchased from ATCC were cultured in DMEM medium containing 10% fetal bovine serum at 37° C. and 5% CO2, and the cells were digested with EDTA trypsin according to routine use, and passed two to three times a week for placement.
(2) Animals: C57 BALB/C mice, 6-8 weeks old, female, weighing about 18-22 g, purchased from Shanghai SLAC Laboratory Animal Co., Ltd.
3) Immunization: Mice were intraperitoneally injected with 100 μL of 5×10^5 D121 lung cancer cells that died by repeated freeze-thaw cycles, and immunized 3 times with an interval of 2 weeks.
4) Cell seeding: Collect the tumor cells in logarithmic growth phase, adjust the D121 cell concentration to (1×10^7/ml) with DMEM basal medium, 0.1 ml of the cell suspension was inoculated to the right side of each mouse subcutaneously with a 1 ml syringe. […] Tumor volume was observed and measured, and the average tumor volume reached 100-200 mm^3 about 7 days after inoculation, that is, tumor cell-bearing mice were grouped and administered. The immunized group in Table 9 was immunized with D121 lung cancer cells, and the D121 dead tumor cell immunized group was injected with physiological saline as a control.
The immunosuppressive regulatory point protein Anti-PD-L1 antibody was injected twice a week. A total of two weeks.
6) Experimental observation: During the whole experiment, the use and observation of experimental animals were carried out in accordance with the regulations of AAALAC. The experimental animals were observed daily after inoculation of tumor cells, and their onset and death were recorded. During the routine experiment, all experimental animals were monitored and recorded for behavior, feeding, water intake, weight change, hair shine and other abnormalities.
(7) Analysis of tumor CD8+ T cells (T lymphocyte subsets). Tumor tissues were ground and single cancer cells were isolated by filtration using 40 μm Nylon cell strainer, lysed twice with blood cell lysis buffer for 20 min, washed twice with 1% BSA-PBS buffer, centrifuged, and resuspended, and then the cells were counted again. 1×10^5 cells were incubated with leukocyte co-antigen CD45-PE and CD8-FITC-labeled antibody for 1 hour at room temperature in the dark, and then analyzed the proportion of T lymphocyte antigen (CD8) in leukocyte common antigen (CD45)-positive cells by flow cytometry.

[6] = Drug content in tumor tissue homogenate (HPLC); assay type: in vivo; conditions: 10 micromoles per kilogram intravenous, tumor-bearing mice, FIG. 4
Protocol: Intravenous injection of 10 micromoles per kilogram of the drug into tumor-bearing mice, surgically obtained tumor tissue homogenate, and the drug content was determined by the HPLC method.

CT26 tumor cells [7] = experiment: CT26 treatment model (Example 17); assay type: in vivo, mice; conditions: CT26 model as in Example 15
Protocol: as §5, §6, §7, §8
The CT26 immunotherapy model was constructed as in Example 15, and the pharmacodynamic and immunotherapeutic effects of the compounds S4-S6, S9-S12 and S15-S18 in the CT26 treatment model were tested.

Compound | stability [1] [%] | Digestion efficiency [2] [%] | Activation efficiencies (%) (aspartic endopeptidase) | Stability verdict (stable / unstable) [3] | Stability(%) [3] [%] | MTD [4] [mg/kg] | Number of deaths (BALB/C mouse) | Death dose (BALB/C mouse) [mg/kg] | Cure rate % (CT26 tumor cells [5]) [%] | Number of cures (CT26 tumor cells [5]) | Tumor inhibition rate % (Day 42) (CT26 tumor cells [5]) [%] | Tumor inhibition rate/% (week 7) (D121 lung cancer cells) [%] | CD8: CD45 (%) (D121 lung cancer cells) | drug distribution in the tumor [6] | MTD at 17 days [4] [mg/kg] | Recurrence rate % (Week 7) (CT26 tumor cells [5]) [%] | CD8: CD45 (%) (CT26 tumor cells [7]) | Number of animals cured (CT26 tumor cells [7]) | Recurrence rate/% (at week 10) (CT26 tumor cells [7]) [%] | Tumor inhibition rate/% (at week 7) (CT26 tumor cells [7]) [%]
CC(/N=C\[C@H](O)[C@@H](O)[C@H](O)[C@H](O)CO)C(=O)NC(C)C(=O)NC(CC(N)=O)C(=O)Nc1ccc(CO)cc1 (stereo partly drawn) | 89.6 | 25.5 |  |  |  |  |  |  |  |  |  |  |  |  |  |  |  |  |  | 
CC(/N=C/[C@H](O)[C@@H](O)[C@H](O)CO)C(=O)NC(C)C(=O)NC(CC(N)=O)C(=O)Nc1ccc(CO)cc1 (stereo partly drawn) | 78.9 | 60.4 |  |  |  |  |  |  |  |  |  |  |  |  |  |  |  |  |  | 
CC(/N=C(\CO)C(O)C(O)C(O)CO)C(=O)NC(C)C(=O)NC(CC(N)=O)C(=O)Nc1ccc(CO)cc1 (stereo not drawn) | 85.5 | 35.8 |  |  |  |  |  |  |  |  |  |  |  |  |  |  |  |  |  | 
C[C@H](N=C[C@H](O)[C@@H](O)[C@H](O)[C@H](O)CO)C(=O)N[C@@H](C)C(=O)N[C@@H](CC(N)=O)C(=O)Nc1ccc(COC(=O)N(C)CCNC(=O)c2cc(Oc3ccc(NC(=O)Nc4ccc(Cl)c(C(F)(F)F)c4)cc3)ccn2)cc1 [Compound C4, Glucose-AAN-PABC-Compound a, reference compound] |  |  | 46.7 | unstable | 85.7 | 80 | 2 | 90 | 0 | 0 | 36.6 | 40.8 | 10.7 |  |  |  |  |  |  | 
CC(NC(=O)C(C)NC(=O)[C@H](O)[C@H](O)[C@@H](O[C@@H]1O[C@H](CO)[C@H](O)[C@H](O)[C@H]1O)[C@H](O)CO)C(=O)NC(CC(N)=O)C(=O)Nc1ccc(COC(=O)N(C)CCNC(=O)c2cc(Oc3ccc(NC(=O)Nc4ccc(Cl)c(C(F)(F)F)c4)c(F)c3)ccn2)cc1 (stereo partly drawn) [Compound S2, Lacto-AAN-PABC-Compound b] |  |  | 88.4 | stable | 99.6 |  | 2 | 350 | 50 | 5 | 92.4 | 52.4 | 10.5 | multiplied in the distribution of sorafenib in the tumor | 300 | 0 |  |  |  | 
CC(NC(=O)C(C)NC(=O)[C@H](O)[C@H](O)[C@@H](O[C@@H]1O[C@H](CO)[C@H](O)[C@H](O)[C@H]1O)[C@H](O)CO)C(=O)NC(CC(N)=O)C(=O)Nc1ccc(COC(=O)N2CC(C)(C)c3ccc(NC(=O)c4cccnc4NCc4ccncc4)cc32)cc1 (stereo partly drawn) [Compound S6] |  |  |  |  |  |  | 1 | 290 |  |  |  | 73.4 | 14.4 |  | 280 |  | 14.9 | 1 | 0 | 66.7
CC(NC(=O)C(NC(=O)[C@H](O)[C@H](O)[C@@H](O[C@@H]1O[C@H](CO)[C@H](O)[C@H](O)[C@H]1O)[C@H](O)CO)C(C)C)C(=O)NC(CC(N)=O)C(=O)Nc1ccc(COC(=O)N(C)CCNC(=O)c2cc(Oc3ccc(NC(=O)Nc4ccc(Cl)c(C(F)(F)F)c4)cc3)ccn2)cc1 (stereo partly drawn) [Compound S7, Lacto-VAN-PABC-compound a] |  |  | 90.5 | stable | 97.2 |  | 1 | 345 | 70 | 7 | 84.7 |  |  |  | 300 | 0 |  |  |  | 
CC(NC(=O)C(NC(=O)[C@H](O)[C@H](O)[C@@H](O[C@@H]1O[C@H](CO)[C@H](O)[C@H](O)[C@H]1O)[C@H](O)CO)C(C)C)C(=O)NC(CC(N)=O)C(=O)Nc1ccc(COC(=O)N(C)CCNC(=O)c2cc(Oc3ccc(NC(=O)Nc4ccc(Cl)c(C(F)(F)F)c4)c(F)c3)ccn2)cc1 (stereo partly drawn) [Compound S8, Lacto-VAN-PABC-compound b] |  |  | 93.7 | stable | 98.4 |  | 2 | 340 | 70 | 7 | 73.4 |  |  |  | 280 | 0 |  |  |  | 
CC(NC(=O)C(NC(=O)[C@H](O)[C@H](O)[C@@H](O[C@@H]1O[C@H](CO)[C@H](O)[C@H](O)[C@H]1O)[C@H](O)CO)C(C)O)C(=O)NC(CC(N)=O)C(=O)Nc1ccc(COC(=O)N(C)CCNC(=O)c2cc(Oc3ccc(NC(=O)Nc4ccc(Cl)c(C(F)(F)F)c4)cc3)ccn2)cc1 (stereo partly drawn) [Compound S13, Lacto-TAN-PABC-compound a] |  |  | 98.6 | stable | 98.6 |  | 2 | 360 | 80 | 8 | 79.7 |  |  |  | 320 | 0 |  |  |  | 
CC(NC(=O)C(NC(=O)[C@H](O)[C@H](O)[C@@H](O[C@@H]1O[C@H](CO)[C@H](O)[C@H](O)[C@H]1O)[C@H](O)CO)C(C)O)C(=O)NC(CC(N)=O)C(=O)Nc1ccc(COC(=O)N(C)CCNC(=O)c2cc(Oc3ccc(NC(=O)Nc4ccc(Cl)c(C(F)(F)F)c4)c(F)c3)ccn2)cc1 (stereo partly drawn) [Compound S14, Lacto-TAN-PABC-compound b] |  |  | 99.5 | stable | 97.8 |  | 1 | 350 | 80 | 8 | 85. |  |  |  | 310 | 0 |  |  |  | 
Lacto-AAN-PABC-Paclitaxel [Compound C5, reference compound] |  |  | 59.3 | unstable | 89.3 |  |  |  |  |  |  |  |  |  |  |  |  |  |  | 
PEG-Ala-Ala-ASN-PABC | 97.6 | 68.6 |  |  |  |  |  |  |  |  |  |  |  |  |  |  |  |  |  | 
